Source: patent publication US20220002280A1, “COMPOUNDS AND METHODS OF USE” (Ferro Therapeutics, Inc., priority 2019, published 2022)
Structures can show the parent of a compound that is named as a salt.

Experiments:
SJSA-1 [1] = assay: GPX4 inhibition assay: Ferrostatin rescue, SJSA-1; type: cell-based; details: Homo sapiens, SJSA-1 cells
Experimental: (§1) Cells (SJSA-1, 786-0 and/or A431) were seeded (5000 cells/100 μL/well) in 96-well tissue culture plate and incubated at 37° C./5% CO2 for 16-24 hours. The cells were then treated with compounds (25 μL of 5×). The compound concentrations were 10-0.0005 μM prepared in 3-fold serial dilutions with final DMSO concentration of 1%. The plates were then incubated for 24h at 37° C./5% CO2 in a moist environment. Then Alamar Blue™ reagent (final concentration 1×-12.5 μL) was added to each well and incubated for 1.5 hours at 37° C./5% CO2. The plates were read on fluorescence reader at 540 nm excitation and 590 nm emission wavelengths. The IC50 values were subsequently determined using a sigmoidal dose-response curve (variable slope) in GraphPad Prism® 5 software.
(§2) Studies have shown that lipophilic antioxidants, such as Ferrostatin, can rescue cells from GPX4 inhibition-induced ferroptosis. For instance, mesenchymal state GPX4-knockout cells can survive in the presence of Ferrostatin, however, when the supply of Ferrostatin is terminated, these cells undergo ferroptosis (see, e.g., Viswanathan et al., Nature 547:453-7, 2017). […] Accordingly, the ability of a molecule to induce ferroptotic cancer cell death, and that such ability is admonished by the addition of Ferrostatin, is clear indication that the molecule is an GPX4 inhibitor.

786-O [2] = assay: GPX4 inhibition assay: Ferrostatin rescue, 786-O; type: cell-based; details: Homo sapiens, 786-0, 786-O cells
Experimental: as §1, §2

SJSA-1 [3] = assay: Cell proliferation (Alamar Blue) assay, SJSA-1; type: cell-based, human; details: SJSA-1 cells, 24 h treatment
Experimental: (§3) A cell viability assay was performed to assess the potency of the compounds in human cancer cell lines 786-0 (renal cell carcinoma), SJSA-1 (osteosarcoma), and/or A431 (epidermoid carcinoma). Additional cell lines, such as pancreatic cancer cell lines (e.g., Panc 02.13, BxPC-3, Panc 12, Panc 02.03, Panc 6.03, PSN-1, HPAC, and Capan-1), prostate cancer cell lines (e.g., PC-3, DU145, 22Rv1, NCI-H660, BPH1, LNCaP, BM-1604, and MDA PCa 2b), etc., can be tested in a similar method.
as §1

A431 = assay: Cell proliferation (Alamar Blue) assay, A431; type: cell-based, human; details: 24 h treatment
Experimental: as §3, §1

786-O [4] = assay: Cell proliferation (Alamar Blue) assay, 786-O; type: cell-based, human; details: 786-O cells, 24 h treatment
Experimental: as §3, §1

[5] = Mouse IV pharmacokinetics; type: in vivo, Balb/c mice; details: male, Balb/c, plasma; Mouse IV-PK (5 mg/kg)
From the text: Institutional Animal Ethical Committee (IAEC) of Jubilant Biosys (IAEC/JDC/2019/188R (for Mice) and IAEC/JDC/2019/189R (for Rat) nominated by CPCSEA (Committee for the Purpose of Control and Supervision of Experiments on Animals) approved the mice and rat pharmacokinetic experiments. Male Balb/c mice (˜6-8 weeks old with body weight range of 22-25 g) and male SD rats (6-8 weeks old with body weight range of 200-250 g) were procured from Vivo Biotech, Hyderabad, India. Animals were quarantined in Jubilant Biosys Animal House for a period of 7 days with a 12:12 h light: dark cycles, and prior to the study the animals were stratified as per body weight.
A) Procedure for Mice: Intravenous, oral and intraperitoneal pharmacokinetics study was done at doses of 5, 20 and 10 mg/kg respectively at dose volume of 10 mL/Kg for PO and IP while 5 mL/kg for IV route. Sparse sampling was done and at each time point three mice were used for blood sampling (˜100 μL) were collected from retro-orbital plexus at 0.083 (Only for IV), 0.25, 0.5, 1, 2, 4, 8, 10 (only for PO) and 24 h. Blood samples collected in tubes containing K2.EDTA as anticoagulant and centrifuged for 5 min at 10,000 rpm in a refrigerated centrifuge (Biofuge, Heraeus, Germany) maintained at 4° C. for plasma separation.
Group I (IV) received test compound intravenously by tail vein at 5 mg/Kg in solution formulation prepared using 30% Kolliphore EL in WFI; dose volume: 5 mL/Kg; strength: 1 mg/mL.
Blood concentration-time data of test compound was analyzed by non-compartmental method using Phoenix WinNonlin Version 8.1.

A549 = assay: Counter-screen in A549 (CellTiter Glo); type: cell-based, human; details: Homo sapiens, A549 cells, 96 hours
Experimental: Selected compounds were also assayed (counter-screened) in a human lung cancer cell line, A549, a less sensitive cell line to GPX4 inhibitors, as a control to assess differential activity. Cells at a density of 800-2,000 cells/well were seeded in 96-well plates and incubated at 37° C. overnight. A series of nine different concentrations of compound stocks (500×) were created by 3-fold serial dilution in DMSO. These compounds were further diluted in culture media and then added to cells so that the final DMSO concentration was equal to 0.25% or less. After 96 hours of incubation, 50 μL of CellTiter Glo reagent (Promega) was added to each well and luminescence was measured after 10 minutes using EnVision (PerkinElmer). RSL3 (a prototype GPX4 inhibitor, also known as RSL-3) was used as a reference compound titrated from top concentration of up to 30 μM. All compounds were tested initially from 30 µM as the top concentration in duplicates (range of 4.6 nM-30 μM). […] Luminescence from cells treated with DMSO alone was set as Max and % of inhibition was calculated as follows: Inhibition %=(Max-Sample value)/Max*100. Data was analyzed using XL-fit software (ID Business Solutions Ltd.). IC50, relative IC50, or % of top inhibition was calculated.

KP4 = assay: Cell viability in KP4 (Table 4); type: cell-based; details: Homo sapiens, KP-4; KP4 cells
[6] = 2 μM Ferrostatin, read-out: SJSA-1 (IC50, μM) 2 μM Ferrostatin
[7] = 2 μM Ferrostatin, read-out: 786-O (IC50, μM) 2 μM Ferrostatin
[8] = without Ferrostatin, read-out: SJSA-1 (IC50, μM) Without Ferrostatin
[9] = without Ferrostatin, read-out: 786-O (IC50, μM) Without Ferrostatin
[10] = Homo sapiens, A-431, A431 cells

| Structure (SMILES) | IC50 (SJSA-1 [3]; Homo sapiens) | IC50 (A431; [10]) | IC50 (786-O [4]; Homo sapiens, 786-0, 24 h) | IC50 (A549) | further results |
| --- | --- | --- | --- | --- | --- |
| C#CC(=O)N1[C@@H](c2ccc(C(=O)NC3CC3)cc2)c2ccc(OC)cc2C[C@@H]1C [Compound 4, N-cyclopropyl-4-((1S,3S)-6-methoxy-3-methyl-2-propioloyl-1,2,3,4-tetrahydroisoquinolin-1-yl)benzamide] |  |  |  |  | IC50 (SJSA-1 [1]; [6]): 3.56 µM; IC50 (786-O [2]; [7]): 5.73 µM |
| COc1ccc2c(c1)C[C@H](C)N(C(=O)CCl)[C@H]2c1ccc(C(=O)NC2CC2)cc1 [Compound 5, 4-((1S,3S)-2-(2-chloroacetyl)-6-methoxy-3-methyl-1,2,3,4-tetrahydroisoquinolin-1-yl)-N-cyclopropylbenzamide] |  |  |  |  | IC50 (SJSA-1 [1]; [6]): > 10 µM; IC50 (786-O [2]; [7]): > 10 µM |
| COc1ccc2c(c1)C[C@H](C)N(C(=O)CCl)[C@H]2c1ccc(F)cc1 [Compound 8] | 0.183 µM | 7.9 µM | 0.181 µM |  | IC50 (SJSA-1 [1]; [6]): > 10 µM; IC50 (SJSA-1 [1]; [8]): 0.183 µM; IC50 (786-O [2]; [7]): > 10 µM; IC50 (786-O [2]; [9]): 0.181 µM |
| C#CC(=O)N1[C@@H](c2ccc(F)cc2)c2ccc(OC)cc2C[C@@H]1C [Compound 9] | 0.436 µM | 4.9 µM | 0.223 µM |  | IC50 (SJSA-1 [1]; [8]): 0.436 µM; IC50 (786-O [2]; [7]): > 10 µM; IC50 (786-O [2]; [9]): 0.223 µM |
| C#CC(=O)N1[C@@H](CCCC)Cc2cc(OC)ccc2[C@@H]1c1ccc(F)cc1 [Compound 12, 1-((1S,3S)-3-butyl-1-(4-fluorophenyl)-6-methoxy-3,4-dihydroisoquinolin-2(1H)-yl)prop-2-yn-1-one] | 0.025 µM | 3.5 µM | 0.014 µM |  | AUC [5]: 181 ng·h/mL; Cmax [5]: 882 ng/mL; Vd [5]: 19.5 L/kg; clearance [5]: 454 mL/min/kg; half-life [5]: 30 min |
| COC(=O)c1ccc([C@@H]2c3ccc(OC)cc3C[C@H](C(=O)OC)N2C(=O)CCl)cc1 [Compound 41] |  |  |  | 1.31 µM | IC50 (KP4): 0.042 µM |
| COC(=O)c1ccc([C@H]2c3sccc3C[C@H](C(=O)OC)N2C(=O)CCl)cc1 [Compound 42] |  |  |  | 5.05 µM | IC50 (KP4): 0.0618 µM |
| COC(=O)c1ccc([C@@H]2c3sccc3C[C@H](C(=O)OC)N2C(=O)CCl)cc1 [Compound 43] |  |  |  | 10.3 µM | IC50 (KP4): 0.525 µM |
| COc1cc2c(cc1OC)[C@H](c1ccc(N3CCOCC3)cc1)N(C(=O)CCl)[C@@H](C)C2 [Compound 44] | 0.599 µM |  | 0.592 µM | 6.58 µM |  |
| COc1cc2c(cc1OC)[C@@H](c1ccc(N3CCOCC3)cc1)N(C(=O)CCl)[C@@H](C)C2 [Compound 45] | > 3 µM |  | 5.89 µM | 4.74 µM |  |
| COc1ccc2c(c1)C[C@H](C)N(C(=O)CCl)[C@@H]2c1ccc(N2CCOCC2)cc1 [Compound 46] | 2.56 µM |  |  | 3.83 µM |  |
| COc1ccc2c(c1)C[C@H](C)N(C(=O)CCl)[C@H]2c1ccc(N2CCOCC2)cc1 [Compound 47] | 0.329 µM |  |  | 6.58 µM | IC50 (786-O [4]): 0.259 µM |
| C#CC(=O)N1[C@@H](CCCC)Cc2cc(OC)ccc2[C@@H]1C12CC(NC(=O)c3ccncc3)(C1)C2 [Compound 96, N-(3-((1S,3S)-3-butyl-6-methoxy-2-propioloyl-1,2,3,4-tetrahydroisoquinolin-1-yl)bicyclo[1.1.1]pentan-1-yl)isonicotinamide] | 0.368 µM | > 10 µM | 0.163 µM |  |  |
| C#CC(=O)N1[C@@H](CCCC)Cc2cc(OC)ccc2[C@@H]1c1ccc2ncccc2c1 [Compound 97, 1-((1S,3S)-3-butyl-6-methoxy-1-(quinolin-6-yl)-3,4-dihydroisoquinolin-2(1H)-yl)prop-2-yn-1-one] | 0.068 µM | > 10 µM | 0.026 µM |  |  |
| C#CC(=O)N1[C@@H](CCCC)Cc2cc(OC)ccc2[C@@H]1c1ccc(NC(=O)OCCCCC)cc1 [Compound 98, pentyl N-{4-[(1S,3S)-3-butyl-6-methoxy-2-(prop-2-ynoyl)-1,2,3,4-tetrahydroisoquinolin-1-yl]phenyl}carbamate] | 0.053 µM | 8.92 µM | 0.024 µM |  |  |
| C#CC(=O)N1[C@@H](CCCC)Cc2cc(OC)ccc2[C@@H]1c1ccc(CNC23CC4CC(CC(C4)C2)C3)cc1 [Compound 99] | 0.002 µM | 2.77 µM | 0.002 µM |  |  |
| C#CC(=O)N1[C@@H](CCCC)Cc2cc(OC)ccc2[C@@H]1c1ccc(CNC23CC(C2)C3)cc1 [Compound 100] | 0.021 µM | 4.06 µM | 0.013 µM |  |  |
| C#CC(=O)N1[C@@H](CCCC)Cc2cc(OC)ccc2[C@@H]1c1ccc(NC23CC4CC(CC(C4)C2)C3)cc1 [Compound 101, 1-((1S,3S)-1-(4-(((3R,5R,7R)-adamantan-1-yl)amino)phenyl)-3-butyl-6-methoxy-3,4-dihydroisoquinolin-2(1H)-yl)prop-2-yn-1-one hydrochloride] |  |  |  |  | IC50 (SJSA-1 [3]; hydrochloride): 0.0115 µM; IC50 (A431; A431 cells, hydrochloride): 6.87 µM; IC50 (786-O [4]; hydrochloride): 0.008 µM |
| C#CC(=O)N1[C@@H](CCCC)Cc2cc(OC)ccc2[C@@H]1c1ccc(NC(=O)C2CCC2)cc1 [Compound 102, N-(4-((1S,3S)-3-butyl-6-methoxy-2-propioloyl-1,2,3,4-tetrahydroisoquinolin-1-yl)phenyl)cyclobutanecarboxamide] | 0.021 µM | 6.13 µM | 0.021 µM |  |  |
